Data from US10448639B2, “Fungicidal pyrazoles” (FMC CORPORATION, priority 2009, dated 2019).
Where two headings read alike, the source gives them in different places.

What was measured:
[1] = test system: Puccinia recondita f. sp. tritici; assay: Test I: wheat leaf rust, preventive spray on wheat seedlings, visual disease rating; details: for Test I disease control rating / Test I rating (% disease control): wheat leaf rust, 100 = 100% disease control; for Test I disease control rating: sprayed the day before inoculation, 0 = no disease control relative to controls; for pest or weed control at 200 µg/mL: 192 h
Botrytis cinerea = assay: Test B: tomato Botrytis, preventive spray on tomato seedlings, visual disease rating; details: for Test B disease control rating / Test B rating (% disease control): tomato Botrytis, 100 = 100% disease control; for Test B disease control rating: 0 = no disease control relative to controls; for pest or weed control at 200 µg/mL: Botrytis cinerea, in Solanum lycopersicum, 120 h
Septoria tritici = assay: Test G: wheat leaf blotch, preventive spray on wheat seedlings, visual disease rating; details: for Test G disease control rating / Test G rating (% disease control): wheat leaf blotch, 100 = 100% disease control; for Test G disease control rating: sprayed the day before inoculation, 0 = no disease control relative to controls; for pest or weed control at 200 µg/mL: Zymoseptoria tritici, in Triticum aestivum, 504 h
Alternaria solani = assay: Test C: tomato early blight, preventive spray on tomato seedlings, visual disease rating; details: for Test C disease control rating / Test C rating (% disease control): tomato early blight, 100 = 100% disease control; for Test C disease control rating: 0 = no disease control relative to controls; for pest or weed control at 200 µg/mL: Alternaria solani, in Solanum lycopersicum, 168 h
[2] = test system: Erysiphe graminis f sp. tritici; assay: Test J: wheat powdery mildew, preventive spray on wheat seedlings, visual disease rating; details: for Test J disease control rating / Test J rating (% disease control): wheat powdery mildew, 100 = 100% disease control; for Test J disease control rating: sprayed the day before inoculation, 0 = no disease control relative to controls; for pest or weed control at 200 µg/mL: Blumeria graminis, in Triticum aestivum, 192 h
Septoria nodorum = assay: Test F: Septoria glume blotch, preventive spray on wheat seedlings, visual disease rating; details: for Test F disease control rating / Test F rating (% disease control): 100 = 100% disease control; for Test F disease control rating: 0 = no disease control relative to controls; for pest or weed control at 200 µg/mL: Parastagonospora nodorum, in Triticum aestivum, 192 h
[3] = test system: Puccinia recondita f. sp. tritici; assay: Test H: wheat leaf rust, curative spray on inoculated wheat seedlings, visual disease rating; details: for Test H disease control rating / Test H rating (% disease control): wheat leaf rust, 100 = 100% disease control; for Test H disease control rating: sprayed after inoculation, 0 = no disease control relative to controls; for pest or weed control at 200 µg/mL: 144 h
[4] = preventive spray, 0 = no control
[5] = Septoria glume blotch on wheat, preventive spray, 0 = no control
[6] = read-out: Test I disease control rating
[7] = read-out: Test B disease control rating
[8] = read-out: Test G disease control rating
[9] = read-out: Test C disease control rating
[10] = read-out: Test J disease control rating
[11] = read-out: Test F disease control rating
[12] = read-out: Test H disease control rating
[13] = preventive, 0 = no control relative to controls
[14] = 0 = no control relative to controls
[15] = Septoria glume blotch, 0 = no control relative to controls
[16] = curative, 0 = no control relative to controls
[17] = read-out: Test I rating (% disease control)
[18] = read-out: Test B rating (% disease control)
[19] = read-out: Test G rating (% disease control)
[20] = read-out: Test C rating (% disease control)
[21] = read-out: Test J rating (% disease control)
[22] = read-out: Test F rating (% disease control)
[23] = read-out: Test H rating (% disease control)

Cc1nn(C)c(Nc2ccc(Cl)cc2Cl)c1-c1c(Cl)cccc1Cl [compound 327]
Test I disease control rating [1]: 96% | Test B disease control rating (Botrytis cinerea): 99% | Test G disease control rating (Septoria tritici): 100% | Test C disease control rating (Alternaria solani): 0% | Test J disease control rating [2]: 99% | Test F disease control rating (Septoria nodorum; Septoria glume blotch on wheat): 0% | Test H disease control rating [3]: 0%

CCn1nc(C)c(-c2ccc(Cl)cc2)c1Nc1c(F)cccc1F [compound 61]
Test I rating (% disease control) [1, 4]: 38% | Test B rating (% disease control) (Botrytis cinerea; [4]): 97% | Test G rating (% disease control) (Septoria tritici; [4]): 99% | Test C rating (% disease control) (Alternaria solani; [4]): 0% | Test J rating (% disease control) [2, 4]: 73% | Test F rating (% disease control) (Septoria nodorum; [5]): 0% | Test H rating (% disease control) ([3]; curative spray, 0 = no control): 0%

Cc1nn(C)c(Nc2c(F)cc(F)cc2Cl)c1-c1ccc(F)cc1F [Compound 343, N-(2-chloro-4,6-difluorophenyl)-4-(2,4-difluorophenyl)-1,3-dimethyl-1H-pyrazol-5-amine]
pest or weed control at 200 µg/mL [1, 6]: 100% | pest or weed control at 200 µg/mL (Botrytis cinerea; [7]): 100% | pest or weed control at 200 µg/mL (Septoria tritici; [8]): 100% | pest or weed control at 200 µg/mL (Alternaria solani; [9]): 100% | pest or weed control at 200 µg/mL [2, 10]: 100% | pest or weed control at 200 µg/mL (Septoria nodorum; [11]): 97% | pest or weed control at 200 µg/mL [3, 12]: 91%

Cc1nn(C)c(Nc2c(F)cc(Br)cc2F)c1-c1ccc(F)cc1Cl [Compound 365, N-(4-bromo-2,6-difluorophenyl)-4-(2-chloro-4-fluorophenyl)-1,3-dimethyl-1H-pyrazol-5-amine]
pest or weed control at 200 µg/mL [1, 6]: 100% | pest or weed control at 200 µg/mL (Botrytis cinerea; [7]): 100% | pest or weed control at 200 µg/mL (Septoria tritici; [8]): 100% | pest or weed control at 200 µg/mL (Alternaria solani; [9]): 99% | pest or weed control at 200 µg/mL [2, 10]: 100% | pest or weed control at 200 µg/mL (Septoria nodorum; [11]): 64% | pest or weed control at 200 µg/mL [3, 12]: 74%

COc1ccc(Nc2c(-c3ccc(F)cc3Br)c(C)nn2C)c(Cl)c1 [compound 324]
Test I disease control rating [1]: 99% | Test B disease control rating (Botrytis cinerea): 99% | Test G disease control rating (Septoria tritici): 100% | Test C disease control rating (Alternaria solani): 83% | Test J disease control rating [2]: 99% | Test F disease control rating (Septoria nodorum; Septoria glume blotch on wheat): 0% | Test H disease control rating [3]: 63%

Cc1nn(C)c(Nc2ncc(F)cc2F)c1-c1c(F)cccc1Cl [compound 279]
Test I rating (% disease control) [1, 13]: 98% | Test B rating (% disease control) (Botrytis cinerea; [14]): 100% | Test G rating (% disease control) (Septoria tritici; [14]): 100% | Test C rating (% disease control) (Alternaria solani; [14]): 99% | Test J rating (% disease control) [2, 14]: 100% | Test F rating (% disease control) (Septoria nodorum; [15]): 0% | Test H rating (% disease control) [3, 16]: 8%

Cc1nn(C)c(Oc2ccc(F)cc2[N+](=O)[O-])c1-c1ccc(F)cc1Cl [compound 122]
Test I rating (% disease control) [1, 4]: 0% | Test B rating (% disease control) (Botrytis cinerea; [4]): 0% | Test G rating (% disease control) (Septoria tritici; [4]): 0% | Test C rating (% disease control) (Alternaria solani; [4]): 0% | Test J rating (% disease control) [2, 4]: 0% | Test F rating (% disease control) (Septoria nodorum; [5]): 0% | Test H rating (% disease control) ([3]; curative spray, 0 = no control): 11%

Cc1nn(C)c(Nc2ncc(Cl)cc2Cl)c1-c1cccc(Cl)c1Cl [compound 303]
Test I disease control rating [1]: 92% | Test B disease control rating (Botrytis cinerea): 99% | Test G disease control rating (Septoria tritici): 98% | Test C disease control rating (Alternaria solani): 0% | Test J disease control rating [2]: 71% | Test F disease control rating (Septoria nodorum; Septoria glume blotch on wheat): 0% | Test H disease control rating [3]: 0%

CCn1nc(C)c(-c2c(F)cccc2F)c1Nc1cc(OC)cc(OC)c1 [compound 63]
Test I rating (% disease control) [1, 4]: 0% | Test B rating (% disease control) (Botrytis cinerea; [4]): 0% | Test G rating (% disease control) (Septoria tritici; [4]): 0% | Test C rating (% disease control) (Alternaria solani; [4]): 0% | Test J rating (% disease control) [2, 4]: 0% | Test F rating (% disease control) (Septoria nodorum; [5]): 0% | Test H rating (% disease control) ([3]; curative spray, 0 = no control): 0%

COc1cc(F)c(Nc2c(-c3ccc(Cl)cc3)c(C)nn2C)c(F)c1 [compound 29]
Test I rating (% disease control) [1, 4]: 46% | Test B rating (% disease control) (Botrytis cinerea; [4]): 94% | Test G rating (% disease control) (Septoria tritici; [4]): 98% | Test C rating (% disease control) (Alternaria solani; [4]): 0% | Test J rating (% disease control) [2, 4]: 0% | Test F rating (% disease control) (Septoria nodorum; [5]): 0% | Test H rating (% disease control) ([3]; curative spray, 0 = no control): 0%

Cc1nn(C)c(Oc2ccc([N+](=O)[O-])c(C#N)c2)c1-c1c(F)cc(F)cc1F [compound 156]
Test I rating (% disease control) [1, 13]: 41% | Test B rating (% disease control) (Botrytis cinerea; [14]): 94% | Test G rating (% disease control) (Septoria tritici; [14]): 73% | Test C rating (% disease control) (Alternaria solani; [14]): 0% | Test J rating (% disease control) [2, 14]: 47% | Test F rating (% disease control) (Septoria nodorum; [15]): 0% | Test H rating (% disease control) [3, 16]: 0%

COc1cc(F)c(-c2c(C)nn(C)c2Nc2ccc(F)cc2Cl)c(F)c1 [Compound 87, N-(2-chloro-4-fluorophenyl)-4-(2,6-difluoro-4-methoxyphenyl)-1,3-dimethyl-1H-pyrazol-5-amine]
pest or weed control at 200 µg/mL [1, 17]: 99% | pest or weed control at 200 µg/mL (Botrytis cinerea; [18]): 100% | pest or weed control at 200 µg/mL (Septoria tritici; [19]): 98% | pest or weed control at 200 µg/mL (Alternaria solani; [20]): 100% | pest or weed control at 200 µg/mL [2, 21]: 100% | pest or weed control at 200 µg/mL (Septoria nodorum; [22]): 95% | pest or weed control at 200 µg/mL [3, 23]: 85%

COc1cc(F)c(-c2c(C)nn(C)c2Oc2ccc(Cl)c(C#N)c2)c(F)c1 [compound 218]
Test I rating (% disease control) [1, 13]: 92% | Test B rating (% disease control) (Botrytis cinerea; [14]): 94% | Test G rating (% disease control) (Septoria tritici; [14]): 99% | Test C rating (% disease control) (Alternaria solani; [14]): 0% | Test J rating (% disease control) [2, 14]: 87% | Test F rating (% disease control) (Septoria nodorum; [15]): 0% | Test H rating (% disease control) [3, 16]: 17%

COc1ccc(Oc2c(-c3ccc(C)cc3)c(C)nn2C)c(Cl)c1 [compound 55]
Test I rating (% disease control) [1, 4]: 41% | Test B rating (% disease control) (Botrytis cinerea; [4]): 6% | Test G rating (% disease control) (Septoria tritici; [4]): 98% | Test C rating (% disease control) (Alternaria solani; [4]): 0% | Test J rating (% disease control) [2, 4]: 73% | Test F rating (% disease control) (Septoria nodorum; [5]): 0% | Test H rating (% disease control) ([3]; curative spray, 0 = no control): 0%

COc1cc(F)c(-c2c(C)nn(C)c2Oc2c(F)cc(N)cc2F)c(F)c1 [compound 77]
Test I rating (% disease control) [1, 4]: 97% | Test B rating (% disease control) (Botrytis cinerea; [4]): 99% | Test G rating (% disease control) (Septoria tritici; [4]): 95% | Test C rating (% disease control) (Alternaria solani; [4]): 0% | Test J rating (% disease control) [2, 4]: 0% | Test F rating (% disease control) (Septoria nodorum; [5]): 0% | Test H rating (% disease control) ([3]; curative spray, 0 = no control): 6%

Cc1nn(C)c(Nc2c(F)cc(F)cc2F)c1-c1ccc(F)cc1Br [Compound 266, 4-(2-bromo-4-fluorophenyl)-1,3-dimethyl-N-(2,4,6-trifluorophenyl)-1H-pyrazol-5-amine]
pest or weed control at 200 µg/mL [1, 17]: 100% | pest or weed control at 200 µg/mL (Botrytis cinerea; [18]): 100% | pest or weed control at 200 µg/mL (Septoria tritici; [19]): 100% | pest or weed control at 200 µg/mL (Alternaria solani; [20]): 100% | pest or weed control at 200 µg/mL [2, 21]: 100% | pest or weed control at 200 µg/mL (Septoria nodorum; [22]): 98% | pest or weed control at 200 µg/mL [3, 23]: 0%

Cc1nn(C)c(Nc2ccc(Cl)cc2F)c1-c1c(F)cc(C#N)cc1F [compound 143]
Test I rating (% disease control) [1, 4]: 100% | Test B rating (% disease control) (Botrytis cinerea; [4]): 99% | Test G rating (% disease control) (Septoria tritici; [4]): 100% | Test C rating (% disease control) (Alternaria solani; [4]): 99% | Test J rating (% disease control) [2, 4]: 100% | Test F rating (% disease control) (Septoria nodorum; [5]): 100% | Test H rating (% disease control) ([3]; curative spray, 0 = no control): 63%

Cc1cc(Oc2c(-c3c(F)cc(F)cc3F)c(C)nn2C)ccc1Br [compound 165]
Test I rating (% disease control) [1, 13]: 0% | Test B rating (% disease control) (Botrytis cinerea; [14]): 0% | Test G rating (% disease control) (Septoria tritici; [14]): 52% | Test C rating (% disease control) (Alternaria solani; [14]): 0% | Test J rating (% disease control) [2, 14]: 99% | Test F rating (% disease control) (Septoria nodorum; [15]): 0% | Test H rating (% disease control) [3, 16]: 8%

Cc1nn(C)c(Oc2cc(F)cc(C#N)c2)c1-c1ccc(F)cc1Cl [compound 116]
Test I rating (% disease control) [1, 4]: 97% | Test B rating (% disease control) (Botrytis cinerea; [4]): 100% | Test G rating (% disease control) (Septoria tritici; [4]): 100% | Test C rating (% disease control) (Alternaria solani; [4]): 94% | Test J rating (% disease control) [2, 4]: 99% | Test F rating (% disease control) (Septoria nodorum; [5]): 73% | Test H rating (% disease control) ([3]; curative spray, 0 = no control): 16%
